Experimental data as given in patent US6117849A, “S-(+)-adenosylmethionine and 3'-azido-2', 3'-dideoxy-nucleoside complexes as potent inhibitors of HIV-replication” (Symbio Herborn Group GmbH & Co., priority 1996, dated 2000).

What was measured:
HIV-1 isolate of HIV IIB = assay: HIV replication in de novo infected lymphocyte cultures, viral core protein p24 endpoint; format: cell-based, HIV-1 (in human peripheral blood lymphocytes); details: FIG. 1, p24
Protocol: For this purpose, SAM has been tested in a dose response titration ranging from 1000 μg/mL to 10 μg/mL final concentrations for the ability to inhibit HIV replication in de novo infected cells. Endpoint in this assay was the quantitative determination of the concentration of the viral core protein p24 as described by Mueller et al. (Mueller, Ch., Moritz, R., Prigge, G., Weitzel, D., Kunze, R., Kage, A., Koettgen, E., Fresenius Z. Anal. Chem.,330, 352-353, 1988). […] The toxicity testing of cellular proliferation was performed according to J. Mosmann (J. Immunological Methods, 65, 55-63, 1983). […] All experiments were carried out in triplicate cultures, including those for the various concentrations of the molecular complexes tested.--The lymphocytes were infected with a standardized preparation of HIV-1 isolate of HIV IIB. The cells were sedimented by low speed centrifugation, the sediment resuspended in the assay buffer (standard), and the resuspended cells were inoculated by adjusting to the following conditions: 100 ng of viral core protein p24/mL and 3200 pg HIV RNA/mL, respectively. Normally 3×10^8 lymphocytes were suspended in 1 mL if the HIV inoculum, and incubated at 37° C. for 60 minutes. After washing the cells twice with 50 mL of culture medium the cells were resuspended at a concentration of 3×10^6 cells/mL in culture medium which contains 10 units/mL of human recombinant interleukin-2. 100 μL of this cell suspension were added to 100 μL of the pre-diluted solution of the compounds to be tested, without adding any salt or protein. The entire assay was cultivated in humidified atmosphere in the presence of 5% CO2 at 37° C. After the 4th day of infection the viral replication was determined in the lymphocyte cultures. The end point of the titration was the determination of the viral core protein p24 in the supernatant of each of the lymphocyte cultures. 150 μL of the supernatant were removed and transferred to a vial containing 50 μL/well SDS at a final concentration of 0.08% (w/w). The concentration of the synthesized p24 by the HIV infected cells was determined according to Mueller et al., using recombinant p24 as a standard for calibration.

IL-β, IL-2 = assay: Cytokine biosynthesis after stimulation of lymphocytes; format: cell-based; details: after phytohemagglutination stimulation
HIV = assay: TPA- or cytokine-stimulated HIV replication/expression; format: cell-based; details: in vitro
thymidylate kinase = assay: Inhibition of thymidylate kinase, in vitro; format: biochemical
[1] = test system: RT (triphosphatase activity); assay: Triphosphatase activity in presence of RT and phosphate; format: biochemical, HIV; details: in the presence of phosphate (Pi)
Source text: Furthermore the efficiency of such molecular complexes is also seen on the rate at which they are metabolized intra cellularly to the corresponding free ddNMP available to be further transformed to the triphosphate derivative active on the RT, which is enhanced due to these molecular complexes as shown through the kinetics in-vitro and in-vivo. In order to make this transformation feasible, the unique and stable molecular conformation of these complexes and their solvation facilitates the inhibitory and regulatory effects on RT, lipid penetration and inhibitory effects on the growing infective RNA or DNA polymeric chains. The avoidance of e.g. AZT-monophosphate accumulation, similarly also for other ddN N3 compounds, which causes severe inhibition of cellular dTMP kinase, resulting in a blockade of further phosphorylation steps, while on the contrary, the disclosed molecular complexes, appear to be unable to induce the same effects and is clearly incapable of inhibiting their own phosphorylation. This is completely different from those of the single administration of the components, e.g. SAM and ddN≈N3. […] This is also endorsed by the findings that the kinetics of inhibition on the RT enzyme is influenced by the presence of inorganic phosphate resulting in restoring active ATP during the presence of SAM. […]

[2] = human, in vivo
[3] = target: T1, reverse transcriptase (RT) (HIV-1 M:B_HXB2R, UniProt P04585); details: read-out: apparent Ki (recalculated, corrected for DTT); recalculated from literature
Source text: The disclosed inhibitory concentrations of SAM is meant as the apparent concentration of SAM, which inhibits under their in vitro assay conditions 50% of the RT activity. […] Inhibitory experiments using DTT, e g. for protecting sulfhydryl groups of the enzyme (RT), in their assay have to be omitted or corrected for, respectively, since DTT act as a strong reducing agent, particularly for SAM or SAM-tosylate-bis-sulfate which potentiates the reduction due to the sulfonium group which is being reduced to the sulfinium group, or to S-S-complexes comprising of SAM and DDT, respectively. […] Note, the determined inhibitory concentrations are not the ones which can be correlated to the ones according to Michaelis-Mentenkinetics.

[4] = target: T1, reverse transcriptase (RT); format: biochemical; design: A2: RT in cord-blood lymphocyte cultures infected with HIV from an AIDS patient
Protocol: The second in-vitro test uses the enzymatic activity of RT, testing the kinetic and inhibitory action of the molecular complexes. The cloning of the RT in biologically active form made it possible to have large quantities of the RT enzyme available for these studies (RT from Sigma, lot # R 9376).
The steady state reaction conditions for RT are chosen that approximate physiological conditions are met: pH 7.45 (37° C.), ionic strength of 150 mM, routinely a buffer was employed consisting of 50 mM TRIS-HCl, 100 mM KCl, 5 mM MgCl2, the addition of 10 μg/mL bovine serum albumin were included. […] The aforementioned precautions designed to avoid potential reduction of SAM in the presence of DTT are taken into accounts to preclude any distortions of the kinetic behavior of the RT enzyme in the presence of the various substrates e.g. as our molecular compounds. […] The enzyme concentrations of RT was approx. 20 nM, T-P (template-primer) […] and 25 μM of [^3 H]-dNTP (assay conditions are modified fro those of Mayunder et al., J. biol. Chem.,263, 15657, 1988). […] In case both parameters are effected to the same extent, then the inhibition is uncompetitive. In order to facilitate the difference between SAM kinetics and those for the molecular complexes we studied first SAM kinetics and subsequently the kinetics in the presence of the molecular complexes. […] Similar experiments have been carries out with dGTP.
The enzyme was assayed with 50 nM primer sites on poly (rA): oligo (dT), and variable concentrations of [^3 H] dTP as substrates in a reaction mixture as described above at pH 7.5 (37° C.).

SMILES: C[S+](CC[C@H](N)C(=O)O)C[C@H]1O[C@@H](n2cnc3c(N)ncnc32)[C@H](O)[C@@H]1O (single isomer, unassigned; (+)) [SAM, (+)-5'-[(3-amino-3-carboxypropyl)methylsulfinio]-5'-deoxyadenosine]
- inhibition of HIV replication (HIV-1 isolate of HIV IIB): inhibited HIV replication in a dose dependent response
- cytokine biosynthesis (IL-β, IL-2) (IL-β, IL-2): influenced
- cytokine-activation of HIV expression (HIV): does not inhibit cytokine-activation of HIV expression in vitro
- inhibition of thymidylate kinase (thymidylate kinase): reversal of the inhibition of the thymidylate kinase
- triphosphatase activity [1]: stimulated
- CSF peak of SAM relative to plasma [2]: lower and more prolonged for healthy patients
- Ki [3]: 0.2 to 0.25 µM
- fraction unbound (in vitro): 0.95 to 0.97
- stability in RT assay with DTT [4]: destroy SAM
